Where two headings read alike, the source gives them in different places.
Columns and labels:
H3K9AC (HT1080 cells) = experiment: H3K9AC Sandwich ELISA Assay in HT1080 cells (KAT2A primary cell-based screening assay); design: species or system Human
Procedure: Human fibrosarcoma cell line HT1080 was obtained from American Type Culture Collection (ATCC), Manassas, VA USA, Cat. HT-1080 (ATCC® CCL-121™). Cells were cultured in MEM (Thermo Fisher Scientific/Gibco Life Technologies Cat. #11-095-080) plus 10% (v/v) FBS (Thermo Fisher Scientific/Gibco Life Technologies Cat. #26140-079) and 1% Penicillin-Streptomycin (Thermo Fisher Scientific/Gibco Life Technologies Cat. #15070063) at 37° C. in 5% CO2.
HT1080 cells were trypsinized, cell viability count performed, and cells suspended in complete media at 100,000 cells/ml. Cells were seeded (100 μl/well) into Greiner Bio-One CELLSTAR 96-well polystyrene flat bottom cell culture microplate (Thermo Fisher Scientific Cat. #07-000-162) at a density of 10,000 cells/well. Cells were incubated for 16 hours at 37° C. at 5% CO2. Compound dilution plates were prepared in 96-well, clear U-bottom, polypropylene plates (Corning 3365) in 100% DMSO at 10 mM stock concentration in duplicate, using 10-point serial dilution (1:3). Compounds were diluted to 1:200 in growth medium and 25 μl from intermediate compound plates were added to each well of the cell plates using a Beckman FX liquid handling system such that the highest compound concentration tested was 10 μM final, with a 0.1% final DMSO concentration in the total volume of 125 μl. Plates were incubated for 24 hours at 37° C. and 5% CO2. Plates were centrifuged at 2500 rpm for 5 minutes and medium was removed. 100 μL 0.4N HCL (Thermo Fisher Scientific Cat #SA56-1) was added to each well and plates were shaken for 60 minutes at 4C to lyse cells. 38ul 0.4N Sodium phosphase dibasic pH12.5 (Thermo Fisher Scientific Cat #S375-212) containing 2 mM Sodium Butyrate (Millipore TR1008G) and 3 mM Phenylmethanesulfonyl-fluoride (Sigma 93482) was added to each well to neutralize lysates.
Cell lysate plates were mixed for 5 minutes at room temperature on shaker and immediately frozen at −80C overnight. Cell lysates were thawed and 50 μL/well was transferred to ELISA plates (Total Histone H3 mouse (Cell Signaling Technology Cat #14269) mAb-coated Corning 1×8 strip-well, white, 96-well plates (Corning 2485)). After 2 hours room temperature incubation, plates were washed six times with PBS/0.05% Tween Wash Buffer using a BioTek plate washer. 50 μL of Histone H3K9AC rabbit detection mAb (Cell Signaling Technology Cat #9649S) diluted 1:1000 in blocking buffer (Thermo Fisher Scientific Cat #37542) was added to each well and incubated for 2 hours at room temperature. After washing, 50 μL anti-rabbit IgG, HRP-Linked antibody (Cell Signaling Technology Cat #7074) diluted 1:1000 in blocking buffer was added to each well and incubated for 60 minutes at room temperature. Following incubation, plates were washed as described above. 50 μL of luminescent GLO substrate reagent (R&D System Cat #DY993) was added to each well and incubated for 10 minutes at room temperature. Plates were read on the PHERAstar plate reader using the 96-well with Luminescent reading mode. IC50 values were calculated using a four-parameter fit with GraphPad Prism version 9.5.1 or in-house modified IDBS ActivityBase data analyzing package.

KAT2A = KAT2A (Homo sapiens (Human), UniProt Q92830); experiment: KAT2A acetyltransferase biochemical assay (RapidFire mass spectrometry, AcCoA to CoA)
Chain of KAT2A (Q92830 whole entry): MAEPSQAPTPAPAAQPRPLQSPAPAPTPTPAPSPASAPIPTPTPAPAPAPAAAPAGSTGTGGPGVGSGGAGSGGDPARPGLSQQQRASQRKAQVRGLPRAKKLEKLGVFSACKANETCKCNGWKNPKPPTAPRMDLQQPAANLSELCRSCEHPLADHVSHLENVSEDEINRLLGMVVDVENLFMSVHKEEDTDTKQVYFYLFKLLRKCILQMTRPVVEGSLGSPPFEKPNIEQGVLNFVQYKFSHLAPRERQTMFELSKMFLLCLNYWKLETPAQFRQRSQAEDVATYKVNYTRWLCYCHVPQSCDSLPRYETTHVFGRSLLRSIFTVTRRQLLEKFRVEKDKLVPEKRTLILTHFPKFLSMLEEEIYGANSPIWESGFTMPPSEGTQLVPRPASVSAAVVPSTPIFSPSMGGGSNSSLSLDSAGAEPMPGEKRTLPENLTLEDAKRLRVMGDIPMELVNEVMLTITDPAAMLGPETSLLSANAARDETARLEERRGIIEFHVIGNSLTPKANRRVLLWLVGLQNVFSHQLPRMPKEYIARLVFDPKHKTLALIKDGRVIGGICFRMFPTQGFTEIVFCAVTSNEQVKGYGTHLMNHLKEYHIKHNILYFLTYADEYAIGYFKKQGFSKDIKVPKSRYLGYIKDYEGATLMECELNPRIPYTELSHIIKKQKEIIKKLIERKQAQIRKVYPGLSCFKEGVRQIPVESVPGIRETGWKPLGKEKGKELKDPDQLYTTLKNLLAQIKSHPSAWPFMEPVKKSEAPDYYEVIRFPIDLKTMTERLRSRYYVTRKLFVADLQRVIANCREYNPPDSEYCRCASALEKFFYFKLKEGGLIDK

[1] = read-out: KAT2A Ki at 1 μM AcCoA, 5 μM H3 1-21 peptide, 0.5 nM KAT2A, 90-minute reaction
[2] = Homo sapiens, HT-1080, H3K9AC sandwich ELISA

| SMILES | IC50 (H3K9AC (HT1080 cells); H3K9AC sandwich ELISA) [nM] | Ki (KAT2A; [1]) [nM] | IC50 (H3K9AC (HT1080 cells); [2]) [nM] | Ki (KAT2A; KAT2A Ki at 1 μM AcCoA, 5 μM H3 1-21 peptide, 0.5 nM KAT2A, 90-minute reaction) [nM] |
| --- | --- | --- | --- | --- |
| CC1(C)CNC[C@](F)(C(=O)N[C@@H]2CC[C@@H](Oc3cccc(CC(=O)O)c3-c3cccc(F)c3C3CCC3)C2)C1 (atropisomer, axis not shown) [Example H12, [(1 ψ)-2′-cyclobutyl-3′-fluoro-6-{[(1R,3R)-3-{[(3ξ)-3-fluoro-5,5-dimethylpiperidine-3-carbonyl]amino}cyclopentyl]oxy}[1,1′-biphenyl]-2-yl]acetic acid] | > 1000 | > 99.9 |  |  |
| CC(C)S(=O)(=O)NC(=O)Cc1ccc(O[C@@H]2CC[C@@H](NC(=O)[C@@]3(F)CNCC(C)(C)C3)C2)c(-c2cccc(F)c2C2CCC2)c1 (single isomer, unassigned) [Example C76] | 485 | 46 |  |  |
| CN1CC2(CCCC2)C[C@@H]1C(=O)N[C@@H]1CC[C@@H](Oc2ccc(C(=O)O)cc2-c2ccccc2C2CCC2)C1 (single isomer, unassigned) [Example D9] |  | 6.76 | 67.2 |  |
| CN1CC(C)(C)C[C@H]1C(=O)N[C@@H]1CC[C@@H](Oc2cccc(C(=O)NS(=O)(=O)N(C)C)c2-c2cccc(F)c2C2CCC2)C1 (atropisomer, axis not shown) [Example I7, N-[(1R,3R)-3-({(1ψ)-2′-cyclobutyl-6-[(dimethylsulfamoyl)carbamoyl]-3′-fluoro[1,1′-biphenyl]-2-yl}oxy)cyclopentyl]-1,4,4-trimethyl-L-prolinamide] |  | 24.4 | 41.4 |  |
| CC1(C)CNC[C@](F)(C(=O)N[C@@H]2CC[C@@H](Oc3cccc(CC(=O)O)c3-c3cccc(F)c3C3CCC3)C2)C1 (atropisomer, axis not shown) [Example H13, [(1 ψ)-2′-cyclobutyl-3′-fluoro-6-{[(1R,3R)-3-{[(3ξ)-3-fluoro-5,5-dimethylpiperidine-3-carbonyl]amino}cyclopentyl]oxy}[1,1′-biphenyl]-2-yl]acetic acid] | 9.7 |  |  |  |
| CCS(=O)(=O)NC(=O)C(C)(C)c1ccc(O[C@@H]2CC[C@@H](NC(=O)[C@@]3(F)CNCC4(CCC4)C3)C2)c(-c2cccc(F)c2C2CCC2)c1 (single isomer, unassigned) [Example B32] | 18.2 | 0.85 |  |  |
| CC(C)S(=O)(=O)NC(=O)Cc1ccc(O[C@@H]2CC[C@@H](NC(=O)[C@]3(F)CNC4(CCC4)C3)C2)c(-c2cccc(F)c2C2CCC2)c1 (single isomer, unassigned) [Example C41] | 39.8 |  |  | 4.1 |
| CCS(=O)(=O)NC(=O)Cc1ccc(O[C@@H]2CC[C@@H](NC(=O)[C@@]3(F)CNC4(CCCC4)C3)C2)c(-c2cccc(F)c2C2CCC2)c1 (single isomer, unassigned) [Example C70] | 73.5 | 0.04 |  |  |
| CN1CC(C)(C)C[C@H]1C(=O)N[C@H]1C[C@H](Oc2cccc(CC(=O)O)c2-c2cccc(F)c2C2CCC2)C[C@H]1O (atropisomer, axis not shown) [Example K6, [(1ψ)-2′-cyclobutyl-3′-fluoro-6-({(1S,3R,4S)-3-hydroxy-4-[(1,4,4-trimethyl-L-prolyl)amino]cyclopentyl}oxy)[1,1′-biphenyl]-2-yl]acetic acid] | 5.73 | 1.13 |  |  |
| O=C(O)Cc1ccc(O[C@@H]2CC[C@@H](NC(=O)[C@@]3(F)CNC4(CCCC4)C3)C2)c(-c2cccc(F)c2C2CCC2)c1 (single isomer, unassigned) [Example A26] | 95.6 | 29.1 |  |  |
| O=C(O)c1ccc(O[C@@H]2CC[C@@H](NC(=O)[C@@]3(F)CNCC4(CCC4)C3)C2)c(-c2cccc(F)c2C2CCC2)c1 (single isomer, unassigned) [Example A33] | > 1000 | > 99.9 |  |  |
| O=C(O)c1nn(C2CC2)cc1-c1ccc(O[C@@H]2CC[C@@H](NC(=O)[C@@]3(F)CNC4(CCC4)C3)C2)c(-c2cccc(F)c2C2CCC2)c1 (single isomer, unassigned) [Example J12] | > 1000 | 25.8 |  |  |
| CN1CC(C)(C)C[C@H]1C(=O)N[C@@H]1CC[C@@H](Oc2ccc(C(=O)O)cc2-c2ccccc2C2CCC2)C1 [Example D4, 2′-cyclobutyl-6-({(1R,3R)-3-[(1,4,4-trimethyl-L-prolyl)amino]cyclopentyl}oxy)[1,1′-biphenyl]-3-carboxylic acid] |  | 25.1 | 88 |  |
| CC[C@](C)(C(=O)O)c1ccc(O[C@@H]2CC[C@@H](NC(=O)[C@]3(F)CNC4(CCC4)C3)C2)c(-c2cccc(F)c2C2CCC2)c1 (single isomer, unassigned) [Example A11] | > 1000 | > 1000 |  |  |
| CN1CC(C)(C)C[C@H]1C(=O)N[C@@H]1CC[C@@H](Oc2cccc(C(=O)NS(C)(=O)=O)c2-c2cccc(F)c2C2CCC2)C1 (atropisomer, axis not shown) [Example I1, N-[(1R,3R)-3-({(1Ψ)-2′-cyclobutyl-3′-fluoro-6-[(methanesulfonyl)carbamoyl][1,1′-biphenyl]-2-yl}oxy)cyclopentyl]-1,4,4-trimethyl-L-prolinamide] |  | 24.5 | 41.9 |  |
| C[C@H](C(=O)NS(C)(=O)=O)c1ccc(OC[C@H]2C[C@H](NC(=O)[C@@H]3CC(C)(C)CN3C)C2)c(-c2cccc(F)c2C2CCC2)c1 (single isomer, unassigned) [Example G3] |  | 2.15 | 20.5 |  |
| CCS(=O)(=O)NC(=O)Cc1ccc(O[C@@H]2CC[C@@H](NC(=O)[C@@]3(F)CNCC4(CCC4)C3)C2)c(-c2cccc(F)c2C2CCC2)c1 (single isomer, unassigned) [Example C59] | 440 | 12.1 |  |  |
| CC(C)c1ccccc1-c1cc(CC(=O)NS(=O)(=O)C2(C)CC2)ccc1O[C@@H]1CC[C@@H](NC(=O)[C@@]2(F)CNCC(C)(C)C2)C1 (single isomer, unassigned) [Example C81] | 135 | 31.1 |  |  |
| CN1CC(C)(C)C[C@H]1C(=O)N[C@@H]1CC[C@@H](Oc2cccc(CC(=O)O)c2-c2ccccc2C2CCC2)C1 (atropisomer, axis not shown) [Example H7] | 340 |  |  |  |
| CCC1(CC)C[C@@](F)(C(=O)N[C@@H]2CC[C@@H](Oc3ccc(C(C)(C)C(=O)O)cc3-c3cccc(F)c3C3CCC3)C2)CN1 (single isomer, unassigned) [Example A31] | 9.3 |  |  |  |
| CCC1(CC)C[C@@](F)(C(=O)N[C@@H]2CC[C@@H](Oc3ccc(C(C)(C)C(=O)O)cc3-c3cccc(F)c3C3CCC3)C2)CN1 (single isomer, unassigned) [Example A30] | > 1000 |  |  |  |
| CC1(C)C[C@H](C(=O)N[C@@H]2CC[C@@H](Oc3cccc(C(=O)O)c3-c3cccc(F)c3C3CCC3)C2)CN1 (atropisomer, axis not shown) [Example H11, (1ψ)-2′-cyclobutyl-6-{[(1R,3R)-3-{[(3ξ)-5,5-dimethylpyrrolidine-3-carbonyl]amino}cyclopentyl]oxy}-3′-fluoro[1,1′-biphenyl]-2-carboxylic acid] |  | 1100 |  |  |
| CN1CC2(CCCC2)C[C@H]1C(=O)N[C@@H]1CC[C@@H](Oc2ccc(C(=O)O)cc2-c2ccccc2C2CCC2)C1 (single isomer, unassigned) [Example D8] |  | 926 |  |  |
| CCc1c(F)cccc1-c1cc(C(C)(C)C(=O)NS(C)(=O)=O)ccc1O[C@@H]1CC[C@@H](NC(=O)[C@@]2(F)CNC3(CCCC3)C2)C1 (single isomer, unassigned) [Example C26] |  | 338 |  |  |
| CN1CC2(CCCC2)C[C@@H]1C(=O)N[C@@H]1CC[C@@H](Oc2cccc(C(=O)NS(C)(=O)=O)c2-c2cccc(F)c2C2CCC2)C1 (atropisomer, axis not shown) [Example I8, (3ξ)-N-[(1R,3R)-3-({(1ψ)-2′-cyclobutyl-3′-fluoro-6-[(methanesulfonyl)carbamoyl][1,1′-biphenyl]-2-yl}oxy)cyclopentyl]-2-methyl-2-azaspiro[4.4]nonane-3-carboxamide] |  | 1360 |  |  |
